# Assay results: patent US12030879B2, “Sulfonyl acetamides as NLRP3 inhibitors” (Inflazome Limited, priority 2018, dated 2024)
# System: not listed separately
# Test: PK protocol, intravenous administration in rats
# Format: in vivo
# Details: rat, plasma, male Sprague Dawley rats, 1 mg/kg
# Procedure: Pharmacokinetic parameters were determined in male Sprague Dawley rats (Vital River Laboratory Animal Technology Co Ltd, Beijing, China, 7-9 weeks old). Animals were group housed during the study and maintained under a 12 h light/dark cycle.
# For intravenous administration, compounds were formulated as a solution in DMSO:PBS [10:90] in 2 mL/kg dosing volume and administered via tail vein.
# Serial blood samples (about 200 μL) were taken from each animal at each of 8 time-points post dose (0.083, 0.25, 0.5, 1, 2, 4, 8 and 24 h). Samples were held on ice for no longer than 30 minutes before centrifugation (5,696 rpm (3,000 g) for 15 minutes) for plasma generation. Plasma was frozen on dry ice prior to bioanalysis. PK parameters were generated from LC-MS/MS data using Phoenix WinNonlin 6.3 software.
AUC,clearance,half-life,SMILES
926 ng·h/mL,29.1 mL/min/kg,19.8 h,"COc1cc(-c2ccc3c(c2CC(=O)NS(=O)(=O)c2ccc(C(C)(C)O)cc2C)CCC3)ccn1 [Example 85, N-((4-(2-Hydroxypropan-2-yl)-2-methylphenyl)sulfonyl)-2-(5-(2-methoxypyridin-4-yl)-2,3-dihydro-1H-inden-4-yl)acetamide]"
1260 ng·h/mL,13.3 mL/min/kg,7.2 h,"COc1cc(-c2cc(F)cc(C(C)C)c2CC(=O)NS(=O)(=O)c2ccc(C(C)C)cc2)ccn1 [Example 110, 2-(4-Fluoro-2-isopropyl-6-(2-methoxypyridin-4-yl)phenyl)-N-((4-isopropylphenyl)sulfonyl)acetamide]"

# Same assay, conditions: rat, plasma, male Sprague Dawley rats, 1 mg/kg, read-out: Vdss
row,Vd,SMILES
1,12.2 L/kg,"COc1cc(-c2ccc3c(c2CC(=O)NS(=O)(=O)c2ccc(C(C)(C)O)cc2C)CCC3)ccn1 [Example 85, N-((4-(2-Hydroxypropan-2-yl)-2-methylphenyl)sulfonyl)-2-(5-(2-methoxypyridin-4-yl)-2,3-dihydro-1H-inden-4-yl)acetamide]"
2,6.72 L/kg,"COc1cc(-c2cc(F)cc(C(C)C)c2CC(=O)NS(=O)(=O)c2ccc(C(C)C)cc2)ccn1 [Example 110, 2-(4-Fluoro-2-isopropyl-6-(2-methoxypyridin-4-yl)phenyl)-N-((4-isopropylphenyl)sulfonyl)acetamide]"

# Biological target: T1, NLRP3 (Homo sapiens, UniProt Q96P20)
# T1 construct: Seed THP-1 cells (25,000 cells/well) containing 1.0 μg/ml LPS in 40 μl of RPMI medium; host or cells: THP-1 cells
# T1 sequence (Q96P20 whole entry): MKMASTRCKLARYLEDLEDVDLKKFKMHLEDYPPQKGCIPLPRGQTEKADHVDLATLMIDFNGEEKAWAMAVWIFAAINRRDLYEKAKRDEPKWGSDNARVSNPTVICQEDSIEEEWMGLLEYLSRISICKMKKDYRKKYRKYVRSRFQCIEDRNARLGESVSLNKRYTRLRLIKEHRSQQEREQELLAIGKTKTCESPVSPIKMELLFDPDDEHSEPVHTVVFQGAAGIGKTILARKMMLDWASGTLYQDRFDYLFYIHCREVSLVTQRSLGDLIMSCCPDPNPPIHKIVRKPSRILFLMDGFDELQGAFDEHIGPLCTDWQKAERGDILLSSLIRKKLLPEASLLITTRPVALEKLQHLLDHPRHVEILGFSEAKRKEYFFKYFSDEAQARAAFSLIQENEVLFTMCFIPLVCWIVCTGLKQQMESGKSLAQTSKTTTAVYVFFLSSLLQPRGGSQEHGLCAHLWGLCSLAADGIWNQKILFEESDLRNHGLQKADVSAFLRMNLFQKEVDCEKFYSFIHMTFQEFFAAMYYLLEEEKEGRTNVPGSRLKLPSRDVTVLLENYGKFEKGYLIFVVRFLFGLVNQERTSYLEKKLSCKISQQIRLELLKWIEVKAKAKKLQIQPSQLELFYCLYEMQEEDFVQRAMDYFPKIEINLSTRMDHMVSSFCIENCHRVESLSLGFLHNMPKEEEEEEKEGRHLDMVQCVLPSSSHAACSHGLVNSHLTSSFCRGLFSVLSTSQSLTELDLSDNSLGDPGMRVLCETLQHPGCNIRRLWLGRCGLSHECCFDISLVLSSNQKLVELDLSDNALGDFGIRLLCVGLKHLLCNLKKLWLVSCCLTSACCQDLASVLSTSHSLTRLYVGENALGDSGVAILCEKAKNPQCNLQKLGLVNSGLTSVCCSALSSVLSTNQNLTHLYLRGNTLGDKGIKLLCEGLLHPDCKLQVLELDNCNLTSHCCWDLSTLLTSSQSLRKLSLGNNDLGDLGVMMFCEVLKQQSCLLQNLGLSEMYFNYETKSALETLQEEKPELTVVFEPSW
# Test: THP-1 cells pyroptosis assay
# Format: cell-based
# Details: LPS 1 μg/ml, compound 3 hrs, nigericin 5 μM 1 hr, resazurin readout
# Procedure, shortened: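 LPS-primed (1 μg/ml) THP-1 cells in serum-free RPMI were treated 3 h with compound (8-point half-log, top 10 μM; 0.1% DMSO), then with 5 μM nigericin for 1 h at 37°C. Viability was read by 100 μM resazurin (ex 560/em 590 nm) after 1–2 h. IC50 came from 4-parameter nonlinear regression.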
row,SMILES,IC50
1,"COc1cc(-c2ccc3c(c2CC(=O)NS(=O)(=O)c2ccc(C(C)(C)O)cc2C)CCC3)ccn1 [Example 85, N-((4-(2-Hydroxypropan-2-yl)-2-methylphenyl)sulfonyl)-2-(5-(2-methoxypyridin-4-yl)-2,3-dihydro-1H-inden-4-yl)acetamide]",≤ 0.5 µM
2,CNC(=O)c1ccc(S(=O)(=O)NC(=O)Cc2c(-c3ccnc(OC)c3)cc(F)cc2C(C)C)c(C)c1 [Example 182],≤ 10 µM
3,COc1cc(-c2cc(F)cc(C(C)C)c2CC(=O)NS(=O)(=O)c2cc(Br)cs2)ccn1 [Example 183],≤ 1 µM
4,Cc1cc(C(C)(C)O)ccc1S(=O)(=O)NC(=O)Cc1c(-c2ccncc2)cc(F)cc1C(C)C [Example 186],≤ 0.5 µM
5,COc1cc(-c2cc(F)cc(C(C)C)c2CC(=O)NS(=O)(=O)c2nc(C)cc(C)n2)ccn1 [Example 188],≤ 10 µM
6,Cc1cc(C(C)(C)O)ccc1S(=O)(=O)NC(=O)Cc1c(-c2ccnc(C#N)c2)ccc2c1CCC2 [Example 189],≤ 0.5 µM
7,COc1cc(-c2cc(F)cc(C(C)C)c2CC(=O)NS(=O)(=O)c2cncc(N(C)C)n2)ccn1 [Example 191],≤ 1 µM
8,COc1cc(-c2cc(F)cc(C(C)C)c2CC(=O)NS(=O)(=O)c2ccn(C(C)(C)CN(C)C)n2)ccn1 [Example 192],≤ 5 µM
9,COc1cc(-c2cc(F)cc(C(C)C)c2CC(=O)NS(=O)(=O)c2cnn(CC(C)(C)O)c2)ccn1 [Example 193],≤ 5 µM
10,COCC(C)(C)n1ccc(S(=O)(=O)NC(=O)Cc2c(-c3ccnc(OC)c3)cc(F)cc2C(C)C)n1 [Example 194],≤ 5 µM
11,COc1cc(-c2cc(F)cc(C(C)C)c2CC(=O)NS(=O)(=O)c2ccn(C(C)(C)CO)n2)ccn1 [Example 195],≤ 5 µM
12,COc1cc(-c2cc(F)cc(C(C)C)c2CC(=O)NS(=O)(=O)c2cc(C(C)(C)O)n(C(C)C)n2)ccn1 [Example 196],≤ 10 µM
13,COc1cc(-c2cc(F)cc(C(C)C)c2CC(=O)NS(=O)(=O)c2cc(C(C)(C)O)n(C)n2)ccn1 [Example 197],≤ 5 µM
14,COc1cc(-c2cc(F)cc(C(C)C)c2CC(=O)NS(=O)(=O)c2cncc(C(C)(C)O)c2)ccn1 [Example 198],≤ 0.5 µM
15,CCC(O)(CC)c1cc(S(=O)(=O)NC(=O)Cc2c(-c3ccnc(OC)c3)cc(F)cc2C(C)C)sc1C [Example 199],≤ 0.5 µM
16,CC(C)c1cc(S(=O)(=O)NC(=O)Cc2c(-c3cccnc3)cc(F)cc2C(C)C)c(F)cc1F [Example 200],≤ 0.5 µM
17,CC(C)c1cc(S(=O)(=O)NC(=O)Cc2c(-c3ccncc3)cc(F)cc2C(C)C)c(F)cc1F [Example 201],≤ 0.5 µM
18,Cc1nc(C(C)C)c(CC(=O)NS(=O)(=O)c2cc(C(C)C)c(F)cc2F)n1-c1ccncc1 [Example 202],≤ 5 µM
19,COc1ccncc1-c1cc(F)cc(C(C)C)c1CC(=O)NS(=O)(=O)c1cc(C(C)C)c(F)cc1F [Example 203],≤ 0.5 µM
20,COc1cc(-c2ccc3c(c2CC(=O)NS(=O)(=O)c2cc(C(C)C)c(F)cc2F)CCC3)ccn1 [Example 204],≤ 5 µM
21,CCCn1cc(S(=O)(=O)NC(=O)Cc2c(-c3ccnc(OC)c3)cc(F)cc2C(C)C)c(C)n1 [Example 207],≤ 1 µM
22,COc1cc(-c2cc(F)cc(C(C)C)c2CC(=O)NS(=O)(=O)c2cn(CC(C)C)nc2C)ccn1 [Example 208],≤ 5 µM

# The remaining lines, values ahead:
row,IC50,SMILES
1,≤ 1 µM,"COc1cc(-c2cc(F)cc(C(C)C)c2CC(=O)NS(=O)(=O)c2ccc(C(C)C)cc2)ccn1 [Example 110, 2-(4-Fluoro-2-isopropyl-6-(2-methoxypyridin-4-yl)phenyl)-N-((4-isopropylphenyl)sulfonyl)acetamide]"
2,≤ 0.5 µM,CCC(C)(O)c1ccc(S(=O)(=O)NC(=O)Cc2c(-c3ccnc(OC)c3)cc(F)cc2C(C)C)cc1F (centres unmarked) [Example 179]
3,≤ 5 µM,COc1cc(-c2cc(F)cc(C(C)C)c2CC(=O)NS(=O)(=O)c2cccc(CN(C)C)c2)ccn1 [Example 180]
4,≤ 0.5 µM,COc1cc(-c2cc(F)cc(C(C)C)c2CC(=O)NS(=O)(=O)c2ccnc(C(C)(C)O)c2)ccn1 [Example 181]
5,≤ 1 µM,COc1cc(-c2cc(F)cc(C(C)C)c2CC(=O)NS(=O)(=O)c2ccc(-c3cnco3)cc2)ccn1 [Example 184]
6,≤ 0.5 µM,COc1cc(-c2cc(F)cc(C(C)C)c2CC(=O)NS(=O)(=O)c2ccc(C(C)C)cn2)ccn1 [Example 185]
7,≤ 5 µM,COc1cc(-c2cc(F)cc(C(C)C)c2CC(=O)NS(=O)(=O)c2ccc(CC#N)cc2)ccn1 [Example 187]
8,≤ 5 µM,COc1cc(-c2cc(F)cc(C(C)C)c2CC(=O)NS(=O)(=O)c2ccc(C(C)(C)C#N)cc2)ccn1 [Example 190]
9,≤ 0.5 µM,COc1cc(-c2cc(F)cc(C(C)C)c2CC(=O)NS(=O)(=O)c2cc(C(C)C)cs2)ccn1 [Example 205]
10,≤ 0.5 µM,COc1cc(-c2cc(F)cc(C(C)C)c2CC(=O)NS(=O)(=O)c2cc(C(C)C)ccc2C)ccn1 [Example 206]
11,≤ 0.5 µM,C=C(C)c1ccc(C)c(S(=O)(=O)NC(=O)Cc2c(-c3ccnc(OC)c3)cc(F)cc2C(C)C)c1 [Example 209]
